Measurements as given in patent US20030162763A1, “Novel cephalosporin compounds and process for preparing the same” (priority 2000, published 2003).
Converted amounts (≈) assume the structure as drawn. Like-named read-outs stand apart in the source and are kept apart here.

Legend:
Experiment in all cases: Minimum Inhibitory Concentration (MIC), agar dilution
S. epidermidis R005 = format: cell-based; conditions: for MIC: Staphylococcus epidermidis, read-out: Sensitivity test result (MIC), S. epidermidis R005
Experimental: (§1) The effectiveness of the compound according to the present invention was determined by obtaining Minimum Inhibitory Concentration (MIC) of the compounds prepared by the above examples (I-1 to I-6) and vancomycin, which is the known compound having a potent activity against gram-positive strains, as the control drug against the standard strains. Specifically, Minimum Inhibitory Concentration was obtained by diluting the test material with a double dilution method, dispersing them in Mueller-Hinton agar medium, inoculating each of the test strain having 10^7 cfu (colony forming unit) per ml in an amount of 2 μl to the medium and then incubating them at 37° C. for 20 hours. From the result of Minimum Inhibitory Concentration test, it can be seen that the compound according to the present invention has a good activity against major pathogenic microorganisms, which cause hospital infection, including MRSA strains.

E. faecalis L239 = format: cell-based; conditions: Enterococcus faecalis, read-out: Sensitivity test result (MIC), E. faecalis L239
Experimental: as §1

[1] = system: Staphylococcus aureus giorgio; format: cell-based; conditions: for MIC: Staphylococcus aureus, read-out: Sensitivity test result (MIC), Staphylococcus aureus giorgio
Experimental: as §1

S. aureus 241 = format: cell-based, Staphylococcus aureus; conditions: read-out: Sensitivity test result (MIC), S. aureus 241
Experimental: as §1

S. aureus 77 = format: cell-based, Staphylococcus aureus; conditions: for MIC: read-out: Sensitivity test result (MIC), S. aureus 77
Experimental: as §1

E. faecalis EFS004 = format: cell-based; conditions: Enterococcus faecalis, read-out: Sensitivity test result (MIC), E. faecalis EFS004
Experimental: as §1

[2] = system: Staphylococcus aureus K311; format: cell-based; conditions: read-out: Sensitivity test result (MIC), Staphylococcus aureus K311
Experimental: as §1

[3] = R005, Table 1, Mueller-Hinton agar, 37° C., 20 hours
[4] = L239, Table 1, Mueller-Hinton agar, 37° C., 20 hours
[5] = Table 1, Mueller-Hinton agar, 37° C., 20 hours
[6] = Staphylococcus aureus, 241, Table 1, Mueller-Hinton agar, 37° C., 20 hours
[7] = Staphylococcus aureus, 77, Table 1, Mueller-Hinton agar, 37° C., 20 hours
[8] = R005, Table 2, Mueller-Hinton agar, 37° C., 20 hours
[9] = EFS004, Table 2, Mueller-Hinton agar, 37° C., 20 hours
[10] = Table 2, Mueller-Hinton agar, 37° C., 20 hours
[11] = K311, Table 2, Mueller-Hinton agar, 37° C., 20 hours
[12] = Staphylococcus aureus, 77, Table 2, Mueller-Hinton agar, 37° C., 20 hours

Compound	MIC (S. epidermidis R005; [3]) [µg/mL]	MIC (E. faecalis L239; [4]) [µg/mL]	MIC [1, 5] [µg/mL]	MIC (S. aureus 241; [6]) [µg/mL]	MIC (S. aureus 77; [7]) [µg/mL]	also measured
Nc1nc(O)cc(SC2=C(C(=O)O)N3C(=O)[C@@H](NC(=O)CSc4cc(Cl)nc(Cl)c4)[C@H]3SC2)n1 [Compound I-6, (6R,7R)-3-[(2-amino-6-hydroxy-4-pyrimidinyl)sulfanyl]-7-({2-[(2,6-dichloro-4-pyridinyl)sulfanyl]acetyl}amino)-8-oxo-5-thia-1-azabicyclo[4.2.0]oct-2-ene-2-carboxylic acid]	–	–	–	–	–	MIC (S. epidermidis R005; [8]): 0.5 µg/mL (≈ 0.891 µM); MIC (E. faecalis EFS004; [9]): 2 µg/mL (≈ 3.56 µM); MIC [1, 10]: 0.063 µg/mL (≈ 0.112 µM); MIC [2, 11]: 1 µg/mL (≈ 1.78 µM); MIC (S. aureus 77; [12]): 2 µg/mL (≈ 3.56 µM)
Nc1ccnc(SC2=C(C(=O)O)N3C(=O)[C@@H](NC(=O)Cc4ccccc4)[C@H]3SC2)n1 [Compound I-4, (6R,7R)-3-[(4-amino-2-pyrimidinyl)sulfanyl]-8-oxo-7-[(phenylacetyl)amino]-5-thia-1-azabicyclo[4.2.0]oct-2-ene-2-carboxylic acid]	32 (≈ 72.2 µM)	> 64	4 (≈ 9.02 µM)	> 64	32 (≈ 72.2 µM)	–
CN[C@H](CC(C)C)C(=O)N[C@H]1C(=O)N[C@@H](CC(N)=O)C(=O)N[C@H]2C(=O)N[C@H]3C(=O)N[C@H](C(=O)N[C@H](C(=O)O)c4cc(O)cc(O)c4-c4cc3ccc4O)[C@H](O)c3ccc(c(Cl)c3)Oc3cc2cc(c3O[C@@H]2O[C@H](CO)[C@@H](O)[C@H](O)[C@H]2O[C@H]2C[C@](C)(N)[C@H](O)[C@H](C)O2)Oc2ccc(cc2Cl)[C@H]1O [Vancomycin, vancomycin, reference compound]	–	–	–	–	–	MIC (S. epidermidis R005; R005, 20 h): 1 µg/mL (≈ 0.69 µM); Sensitivity test result (MIC), S. epidermidis R005 (S. epidermidis R005; [10]): 1 µg/mL; MIC (E. faecalis EFS004; EFS004, 20 h): 1 µg/mL (≈ 0.69 µM); MIC (E. faecalis L239; L239, 20 h): 2 µg/mL (≈ 1.38 µM); MIC ([1]; 20 h): 1 µg/mL (≈ 0.69 µM); Sensitivity test result (MIC), Staphylococcus aureus giorgio [1, 10]: 1 µg/mL; MIC ([2]; K311, 20 h): 2 µg/mL (≈ 1.38 µM); MIC (S. aureus 241; Staphylococcus aureus, 241, 20 h): 2 µg/mL (≈ 1.38 µM); MIC (S. aureus 77; Staphylococcus aureus, 77, 20 h): 1 µg/mL (≈ 0.69 µM); Sensitivity test result (MIC), S. aureus 77 (S. aureus 77; [10]): 1 µg/mL
Nc1cc(SC2=C(C(=O)O)N3C(=O)[C@@H](NC(=O)CSc4c(Cl)cccc4Cl)[C@H]3SC2)nc(O)n1 [Compound I-3, (6R,7R)-3-[(6-amino-2-hydroxy-4-pyrimidinyl)sulfanyl]-7-({2-[(2,6-dichloro-phenyl)sulfanyl]acetyl}amino)-8-oxo-5-thia-1-azabicyclo[4.2.0]oct-2-ene-2-carboxylic acid]	0.5 (≈ 0.892 µM)	2 (≈ 3.57 µM)	0.016 (≈ 0.0285 µM)	4 (≈ 7.14 µM)	1 (≈ 1.78 µM)	–
Nc1cc(SC2=C(C(=O)O)N3C(=O)[C@@H](NC(=O)CSc4cc(Cl)nc(Cl)c4)[C@H]3SC2)nc(N)n1 [Compound I-5, (6R,7R)-3-[(2,6-diamino-4-pyrimidinyl)sulfanyl]-7-({2-[(2,6-dichloro-4-pyridinyl)sulfanyl]acetyl}amino)-8-oxo-5-thia-1-azabicyclo[4.2.0]oct-2-ene-2-carboxylic acid]	–	–	–	–	–	MIC (S. epidermidis R005; [8]): 1 µg/mL (≈ 1.78 µM); MIC (E. faecalis EFS004; [9]): 4 µg/mL (≈ 7.14 µM); MIC [1, 10]: 0.063 µg/mL (≈ 0.112 µM); MIC [2, 11]: 1 µg/mL (≈ 1.78 µM); MIC (S. aureus 77; [12]): 1 µg/mL (≈ 1.78 µM)

Second part, led by results:

MIC (S. epidermidis R005; [3]) [µg/mL]	MIC (E. faecalis L239; [4]) [µg/mL]	MIC [1, 5] [µg/mL]	MIC (S. aureus 241; [6]) [µg/mL]	MIC (S. aureus 77; [7]) [µg/mL]	Compound	also measured
0.5 (≈ 0.892 µM)	2 (≈ 3.57 µM)	0.031 (≈ 0.0553 µM)	4 (≈ 7.14 µM)	0.5 (≈ 0.892 µM)	Nc1nc(O)cc(SC2=C(C(=O)O)N3C(=O)[C@@H](NC(=O)CSc4cc(Cl)ccc4Cl)[C@H]3SC2)n1 [Compound I-2, (6R,7R)-3-[(2-amino-6-hydroxy-4-pyrimidinyl)sulfanyl]-7-({2-[(2,5-dichloro-phenyl)sulfanyl]acetyl}amino)-8-oxo-5-thia-1-azabicyclo[4.2.0]oct-2-ene-2-carboxylic acid]	–
0.25 (≈ 0.447 µM)	2 (≈ 3.57 µM)	< 0.008	2 (≈ 3.57 µM)	0.25 (≈ 0.447 µM)	Nc1cc(SC2=C(C(=O)O)N3C(=O)[C@@H](NC(=O)CSc4cc(Cl)ccc4Cl)[C@H]3SC2)nc(N)n1 [Compound I-1, (6R,7R)-3-[(2,6-diamino-4-pyrimidinyl)sulfanyl]-7-({2-[(2,5-dichlorophenyl)-sulfanyl]acetyl}amino)-8-oxo-5-thia-1-azabicyclo[4.2.0]oct-2-ene-2-carboxylic acid]	–
